The IC50 is the point on the concentration scale where inhibition reaches its midpoint.

The target of the assay is T1, L-CPT1 (Homo sapiens, UniProt P50416).
T1 construct: made in house; host or cells: Pichia pastoris strain X-33 (pGAPZB/pGAPZA vector), crude cell-free extract
T1 sequence (P50416 1-773): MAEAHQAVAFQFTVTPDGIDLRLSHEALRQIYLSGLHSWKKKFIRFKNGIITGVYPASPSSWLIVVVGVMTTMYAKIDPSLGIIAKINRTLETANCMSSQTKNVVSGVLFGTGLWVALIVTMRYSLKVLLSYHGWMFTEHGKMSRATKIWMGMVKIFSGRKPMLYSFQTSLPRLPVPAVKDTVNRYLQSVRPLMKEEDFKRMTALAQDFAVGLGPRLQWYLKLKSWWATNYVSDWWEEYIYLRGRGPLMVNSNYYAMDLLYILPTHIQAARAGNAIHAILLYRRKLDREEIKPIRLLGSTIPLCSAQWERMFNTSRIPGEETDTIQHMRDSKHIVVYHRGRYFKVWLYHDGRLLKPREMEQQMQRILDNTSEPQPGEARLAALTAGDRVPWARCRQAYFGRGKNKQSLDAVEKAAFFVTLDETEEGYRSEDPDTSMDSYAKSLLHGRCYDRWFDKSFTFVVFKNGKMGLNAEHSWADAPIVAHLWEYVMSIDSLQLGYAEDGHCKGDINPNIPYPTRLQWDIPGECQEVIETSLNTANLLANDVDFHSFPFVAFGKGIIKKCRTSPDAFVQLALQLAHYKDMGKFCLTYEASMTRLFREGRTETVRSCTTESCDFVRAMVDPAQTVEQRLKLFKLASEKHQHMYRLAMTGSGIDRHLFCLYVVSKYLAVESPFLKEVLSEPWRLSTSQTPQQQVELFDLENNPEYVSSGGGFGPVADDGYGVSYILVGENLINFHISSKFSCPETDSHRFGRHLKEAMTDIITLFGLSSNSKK
In words: CPT activity spectrophotometric assay with DTNB (Ellman's reagent), cell-free extracts of P. pastoris expressing CPT1. It is filed as biochemical. The settings on record: carnitine 500 μM, palmitoyl-CoA 80 μM, DTNB 300 μM, absorbance at 410 nm, pH 7.4; read-out: L-CPT1 inhibition IC50. Here is the method:
The following tests were carried out in order to determine the activity of the compounds of the present invention. Background information on the performed assays can be found in: Jackson et al., 1999, Biochem. J. 341, 483-489 and Jackson et al., 2000, J. Biol. Chem. 275, 19560-19566.
Human liver and muscle CPT1 cDNAs and rat CPT2 cDNA were subcloned in pGAPZB or pGAPZA, respectively. These plasmids were used to transform P. pastoris strain X-33 via electroporation after the preparation of electrocompetent cells. High copy number clones were selected where necessary using 0.5 or 1 mg/ml Zeocin. Cultures for activity measurements were induced for 16 h in YPD medium (1% yeast extract, 2% peptone, 2% glucose). Crude cell extracts were prepared by disrupting the cells with glass beads or French Press, depending on fermenter sizes. After centrifugation, the cell-free extracts were resuspended in cell breaking buffer (50 mM Tris, pH 7.4, 100 mM KCl, 1 mM EDTA) in the presence of a protease inhibitor cocktail, before aliquoting and freezing at −20° C.
CPT activity was measured using a spectrophotometric assay using 5,5′-dithio-bis-(2-nitrobenzoic acid) (DTNB) also called Ellman's reagent. The HS-CoA released on the formation of acylcarnitine from carnitine (500 μM) and palmitoyl-CoA (80 μM) reduced DTNB (300 μM) forming 5-mercapto-(2-nitrobenzoic acid) witch absorbed at 410 nm with a molar coefficient extinction of 13600 M^−1·cm^−1. The assay buffer contained 120 mM KCl, 25 mM Tris, pH 7.4, 1 mM EDTA. This assay was used for the identification of selective inhibitors of the liver CPT1 isoform versus the muscle CPT1 and CPT2 isoforms.
In the case of `O=C(O)c1ccc(NC(=O)c2ccc(Cl)c(NS(=O)(=O)c3cccc(Cl)c3)c2)cc1` [Example 21, 4-[4-Chloro-3-(3-chloro-benzenesulfonylamino)-benzoylamino]-benzoic acid], the IC50 was 0.153 µM.
In the case of `O=C(O)c1ccc(NC(=O)c2cccc(NS(=O)(=O)c3ccc(Cl)c(Cl)c3)c2)cc1` [Example 5, 4-[3-(3,4-Dichloro-benzenesulfonylamino)-benzoylamino]-benzoic acid] it was 0.192 µM; in that of `COc1cc(C(=O)Nc2ccc(C(=O)O)cc2)cc(NS(=O)(=O)c2cc(Cl)cc(Cl)c2)c1OC` [Example 32, 4-[3-(3,5-Dichloro-benzenesulfonylamino)-4,5-dimethoxy-benzoylamino]-benzoic acid], 0.881 µM.
